These results are taken from PMC12267471, “Discovery of natural scaffolds as HER2 inhibitors for breast cancer: virtual screening, molecular dynamics, and biological characterization with selectivity profiling” (Scientific Reports, 2025).

Bounds are passed on as bounds.

In test [1] the test system is SKBR3 cells. The test can be described thus: Wound healing assay, SKBR3. As to conditions: Homo sapiens, SK-BR-3. The class given is cell-based. Here is the method:
In a sterile flat-bottom 24-well plate, SKBR3 and BT-474 breast cancer cells were plated at a density of 1 × 10^5 cells/well. […] Wounds were then inflicted across each cell monolayer using a sterile 200 µL pipette tip. Media was aspirated, and cells were washed twice with PBS to remove floating cells and cell debris. Fresh serum-free media was placed up against the well wall to cover the bottom of the well and prevent further cell detachment. Incubation of cells was resumed for five hours at 37 °C in a humidified CO2 incubator. Subsequently, the media were substituted with fresh ones containing various doses of liquiritin, oroxin B, or DMSO as a vehicle control (3 replicates/group) along with EGF (100 ng/mL) as a scattering factor. Wound closure was microscopically monitored in vehicle-treated control wells, and the time frame for wound closure was determined to be 72 h. Before the closure of wounds in the vehicle-treated control wells, the media were removed, cells were washed with PBS and completely fixed using cold methanol for 20 min at 4 °C. An inverted VistaVision microscope was used to take pictures of the wounds monitored at zero and 72 h with a VistaVision Still camera (VWR, Radnor, PA).
Results were expressed as a percentage of cell migration according to the following Equation[16]: [drawing 2]
Where Tt is the wound thickness in treatment wells, TDMSO is the thickness of the wound in control wells treated by DMSO, and Tº is the thickness of the wound at zero time. Wound thickness was calculated in three or more randomly selected fields per treatment group.

The target in another test is ERBB4 (HER4) (Homo sapiens, UniProt Q15303). Description: SelectScreen Z'-LYTE kinase profiling. The format is biochemical. The procedure: (§1) Liquiritin was screened at 0.1 µM dose against a panel of 15 human kinases using SelectScreen® kinase profiling services offered by ThermoFisher Scientific™ (Madison, WI, USA). The percent inhibition of Liquiritin was assessed against each kinase in an automated high-throughput screening system using the time-resolved fluorescence resonance energy transfer Z´-LYTE™ kinase assay. Technology overview, protocols, and assay conditions are accessible at https://x.gd/UgBBB.

The target in a further test is IGF1R (Homo sapiens, UniProt P08069). The test can be described thus: SelectScreen Z'-LYTE kinase profiling. The format is biochemical. Here is the method: as §1
Another test addresses ERBB2 (HER2) (Homo sapiens, UniProt P04626). Description: SelectScreen Z'-LYTE kinase profiling. The format is biochemical. Here is the method: as §1
A further test deals with EGFR (ErbB1) (Homo sapiens, UniProt P00533). Description: SelectScreen Z'-LYTE kinase profiling. The class given is biochemical. Here is the method:
as §1

For the next test, the target named is FLT1 (VEGFR1) (Homo sapiens, UniProt P17948). Description: SelectScreen Z'-LYTE kinase profiling. The format is biochemical. The procedure:
as §1

The target in another test is ROS1 (Homo sapiens, UniProt P08922). The test can be described thus: SelectScreen Z'-LYTE kinase profiling. The format is biochemical. Here is the method: as §1
The next test addresses FGFR1 (Homo sapiens, UniProt P11362). Description: SelectScreen Z'-LYTE kinase profiling. The format is biochemical. Here is the method: as §1
A further test concerns the target RET (Homo sapiens, UniProt P07949). Description: SelectScreen Z'-LYTE kinase profiling. The format is biochemical. The procedure:
as §1

In a further test the target is KDR (VEGFR2) (Homo sapiens, UniProt P35968). Description: SelectScreen Z'-LYTE kinase profiling. The class given is biochemical. Here is the method: as §1
In another test the target is T1, HER2 kinase (Homo sapiens, UniProt P04626).
T1 construct: HER2 purified kinase domain (amino acids 676–1255); purchased Thermo Fischer Scientific PV3590
Description: Z'-LYTE Kinase Assay-Tyr6 Peptide biochemical HER2 kinase assay. As to conditions: cell-free Z'-LYTE, Tyr6 peptide substrate; read-out: IC50, inhibition of ATP-induced HER2 phosphorylation. The text has this:
The Z’-LYTE™ Kinase Assay-Tyr6 Peptide kit (Thermo Fischer Scientific™, Madison, WI, USA) was employed to evaluate the potential of selected natural products to suppress the catalytic activity of HER2 kinase. The assay adopts a Fluorescence Resonance Energy Transfer (FRET) based method in a cell-free coupled-enzyme format with no use of antibodies. The assay method mainly relies on the difference in sensitivity of phosphorylated and non-phosphorylated peptides to proteolytic cleavage. This method is a ratio metric method that calculates the Emission Ratio of donor emission divided by acceptor emission after excitation of the donor fluorophore at 400 nm. In this assay, 20 µL/well reactions containing kinase buffer, 200 µM ATP, 4µM Z’-LYTE Tyr6 Peptide substrate, 2500 ng/mL HER2 kinase, and drugs of interest functioning as inhibitors were set up in 96-well plates. Each well received 10 µL of site-specific protease development solution after one hour of room temperature incubation. The incubation continued for a full hour. Following process termination, the kinase inhibitory activity and/or peptide substrate cleavage status were assessed using a plate reader (BioTek FLx800™) to measure the ratio of fluorescence signal at 445 nm (coumarin)/520 nm (fluorescein).
The IC50 value for each natural product was computed using XLfit® 4.1 software (ID Business Solutions Inc. (IDBS), Emeryville CA), applying non-linear regression of log concentration against the percentage of HER2 inhibition.
Utilizing the Z’-LYTE™ Kinase Assay-Tyr6 Peptide kit as a cell-free system for evaluating the inhibitory activity of HER2, the five natural products were evaluated for their capacity to inhibit HER2 phosphorylation. Since its kinase catalysis is necessary for all HER2-mediated activities, we attempted at this initial stage to validate the HER2 inhibitory ability of the five in silico hits directly on the HER2 purified kinase domain (amino acids 676–1255), that was in vitro phosphorylated to attain the maximum level of intrinsic kinase activity. In this assay, the substrate was Z’-LYTE™ Tyr6 peptide; thus, the changes in its phosphorylation can directly correlate with the HER2 kinase activity. In the meantime, tyrphostin AG 1478 was used as a positive control to ensure the validity of the assay. Lapatinib (Tykerb®) was included as a second positive control to benchmark virtual hits’ performance against clinically approved standards.

Test [2] has as its system SKBR3 cells. Description: Transwell cell migration assay, SKBR3. Conditions: SKBR3, 6.4 µM, 24 h. The class given is cell-based, human. Here is the method: The in vitro transwell migration assay was conducted using an HTS-96 transwell permeable support chamber with 8 μm pores (Corning, USA) equipped with polyvinylpyrrolidone-free polycarbonate (PVPF) filters. […] The plate was incubated for 24 h at 37 °C. Then, the transwell inserts were incubated in the receiver plate with Calcein AM/cell dissociation solution at 37 °C in 5% CO2 incubator for 1 h, followed by measuring the fluorescence using a fluorescence plate reader with 485 nm excitation and 520 nm emission filter package. The relative fluorescence units were converted to cell count using a standard curve. The number of cells that moved to the lower side of the filter was used to assess migratory characteristics. The experiment in both cell lines was conducted in triplicate and data are presented as the mean ± SD.

Sequence of EGFR (ErbB1) (P00533 25-1210): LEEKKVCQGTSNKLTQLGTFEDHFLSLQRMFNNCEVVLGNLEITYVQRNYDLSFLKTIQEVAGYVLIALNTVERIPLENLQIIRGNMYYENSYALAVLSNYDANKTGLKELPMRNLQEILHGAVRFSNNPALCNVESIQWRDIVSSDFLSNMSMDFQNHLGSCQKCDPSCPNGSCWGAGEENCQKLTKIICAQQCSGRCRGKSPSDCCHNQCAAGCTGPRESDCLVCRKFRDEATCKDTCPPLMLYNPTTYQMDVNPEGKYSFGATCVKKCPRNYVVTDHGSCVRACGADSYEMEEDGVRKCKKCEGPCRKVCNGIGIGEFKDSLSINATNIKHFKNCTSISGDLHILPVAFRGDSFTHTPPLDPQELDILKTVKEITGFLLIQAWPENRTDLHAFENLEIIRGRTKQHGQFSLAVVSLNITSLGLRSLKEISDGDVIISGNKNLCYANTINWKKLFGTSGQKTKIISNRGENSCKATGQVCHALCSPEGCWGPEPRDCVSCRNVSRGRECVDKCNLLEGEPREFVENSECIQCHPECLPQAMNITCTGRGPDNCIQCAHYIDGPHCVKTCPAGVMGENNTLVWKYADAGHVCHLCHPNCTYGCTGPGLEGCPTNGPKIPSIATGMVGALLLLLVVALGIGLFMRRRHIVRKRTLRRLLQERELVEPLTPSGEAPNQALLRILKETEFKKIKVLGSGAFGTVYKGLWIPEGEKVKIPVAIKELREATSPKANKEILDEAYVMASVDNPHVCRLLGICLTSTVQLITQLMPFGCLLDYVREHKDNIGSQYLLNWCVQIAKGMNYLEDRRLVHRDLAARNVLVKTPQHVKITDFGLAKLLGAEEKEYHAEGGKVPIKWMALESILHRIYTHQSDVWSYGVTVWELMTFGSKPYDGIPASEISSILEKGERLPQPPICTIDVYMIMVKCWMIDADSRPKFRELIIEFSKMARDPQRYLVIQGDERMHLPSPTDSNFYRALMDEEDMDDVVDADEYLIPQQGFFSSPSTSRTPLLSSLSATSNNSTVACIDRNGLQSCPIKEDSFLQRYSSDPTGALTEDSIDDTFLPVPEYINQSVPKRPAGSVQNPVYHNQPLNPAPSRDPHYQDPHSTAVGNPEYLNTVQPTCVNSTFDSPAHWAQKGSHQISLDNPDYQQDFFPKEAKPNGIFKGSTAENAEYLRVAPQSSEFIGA
Sequence of ERBB2 (HER2) (P04626 23-1255): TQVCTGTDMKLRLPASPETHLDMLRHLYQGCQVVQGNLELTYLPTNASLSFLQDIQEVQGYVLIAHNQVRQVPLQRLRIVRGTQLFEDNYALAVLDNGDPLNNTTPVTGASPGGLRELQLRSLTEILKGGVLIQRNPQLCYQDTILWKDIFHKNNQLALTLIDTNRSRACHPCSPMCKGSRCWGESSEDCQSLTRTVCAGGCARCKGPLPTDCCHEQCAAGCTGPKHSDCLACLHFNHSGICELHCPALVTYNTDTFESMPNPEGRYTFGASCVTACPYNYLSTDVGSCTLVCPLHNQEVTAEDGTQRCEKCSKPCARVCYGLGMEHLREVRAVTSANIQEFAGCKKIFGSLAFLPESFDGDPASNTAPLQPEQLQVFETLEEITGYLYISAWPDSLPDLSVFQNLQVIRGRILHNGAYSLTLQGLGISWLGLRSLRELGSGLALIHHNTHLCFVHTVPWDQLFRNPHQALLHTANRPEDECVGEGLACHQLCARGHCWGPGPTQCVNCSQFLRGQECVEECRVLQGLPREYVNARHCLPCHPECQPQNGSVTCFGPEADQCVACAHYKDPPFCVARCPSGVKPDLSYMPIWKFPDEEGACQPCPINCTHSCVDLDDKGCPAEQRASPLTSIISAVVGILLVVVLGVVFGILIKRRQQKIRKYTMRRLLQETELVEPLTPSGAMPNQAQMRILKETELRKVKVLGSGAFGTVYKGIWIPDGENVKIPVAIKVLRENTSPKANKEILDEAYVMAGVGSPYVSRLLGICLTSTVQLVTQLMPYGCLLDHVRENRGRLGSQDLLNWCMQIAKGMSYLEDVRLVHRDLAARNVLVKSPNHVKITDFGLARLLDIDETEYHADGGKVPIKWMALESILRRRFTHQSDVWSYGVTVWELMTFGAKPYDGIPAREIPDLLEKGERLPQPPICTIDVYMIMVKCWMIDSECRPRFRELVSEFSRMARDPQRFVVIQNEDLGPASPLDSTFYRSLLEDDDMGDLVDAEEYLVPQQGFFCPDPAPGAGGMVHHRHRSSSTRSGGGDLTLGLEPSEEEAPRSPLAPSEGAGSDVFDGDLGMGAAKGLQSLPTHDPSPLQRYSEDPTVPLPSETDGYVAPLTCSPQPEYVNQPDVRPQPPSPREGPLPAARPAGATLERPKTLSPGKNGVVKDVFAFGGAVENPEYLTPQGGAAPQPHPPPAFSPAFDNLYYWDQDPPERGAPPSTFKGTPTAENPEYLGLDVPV
Sequence of ERBB4 (HER4) (Q15303 26-1308): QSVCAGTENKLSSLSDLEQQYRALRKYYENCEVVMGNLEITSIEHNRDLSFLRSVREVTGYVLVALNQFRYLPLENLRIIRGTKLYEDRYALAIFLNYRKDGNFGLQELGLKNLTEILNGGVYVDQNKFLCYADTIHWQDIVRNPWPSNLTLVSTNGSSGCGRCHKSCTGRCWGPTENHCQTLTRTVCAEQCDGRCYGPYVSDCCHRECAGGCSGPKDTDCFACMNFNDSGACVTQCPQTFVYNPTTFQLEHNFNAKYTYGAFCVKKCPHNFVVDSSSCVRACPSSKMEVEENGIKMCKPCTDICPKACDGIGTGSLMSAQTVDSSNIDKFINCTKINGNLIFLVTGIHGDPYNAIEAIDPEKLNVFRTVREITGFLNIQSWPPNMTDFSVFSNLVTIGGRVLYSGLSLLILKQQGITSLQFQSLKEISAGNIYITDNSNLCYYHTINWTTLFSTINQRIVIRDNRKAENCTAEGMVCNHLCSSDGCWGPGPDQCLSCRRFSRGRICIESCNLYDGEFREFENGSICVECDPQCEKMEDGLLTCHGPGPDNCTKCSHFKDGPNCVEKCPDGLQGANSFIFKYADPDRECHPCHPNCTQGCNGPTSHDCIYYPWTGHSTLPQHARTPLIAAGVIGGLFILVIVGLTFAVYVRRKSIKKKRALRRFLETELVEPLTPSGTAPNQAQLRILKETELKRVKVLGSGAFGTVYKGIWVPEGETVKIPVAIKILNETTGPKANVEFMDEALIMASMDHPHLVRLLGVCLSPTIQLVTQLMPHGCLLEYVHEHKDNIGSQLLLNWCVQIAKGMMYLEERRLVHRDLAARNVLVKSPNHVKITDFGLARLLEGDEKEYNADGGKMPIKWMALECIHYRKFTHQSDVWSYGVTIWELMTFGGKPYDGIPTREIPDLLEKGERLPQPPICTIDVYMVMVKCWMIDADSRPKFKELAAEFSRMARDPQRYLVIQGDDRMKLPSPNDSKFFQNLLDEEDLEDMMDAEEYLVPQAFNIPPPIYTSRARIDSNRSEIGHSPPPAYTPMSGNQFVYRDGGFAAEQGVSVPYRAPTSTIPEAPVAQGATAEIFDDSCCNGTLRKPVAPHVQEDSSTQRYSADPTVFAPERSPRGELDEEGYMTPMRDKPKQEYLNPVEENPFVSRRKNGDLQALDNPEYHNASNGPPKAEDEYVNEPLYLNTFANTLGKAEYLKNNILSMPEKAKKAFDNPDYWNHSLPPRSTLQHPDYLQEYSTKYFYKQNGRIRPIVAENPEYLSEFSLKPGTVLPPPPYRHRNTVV
Sequence of IGF1R (P08069 31-1367): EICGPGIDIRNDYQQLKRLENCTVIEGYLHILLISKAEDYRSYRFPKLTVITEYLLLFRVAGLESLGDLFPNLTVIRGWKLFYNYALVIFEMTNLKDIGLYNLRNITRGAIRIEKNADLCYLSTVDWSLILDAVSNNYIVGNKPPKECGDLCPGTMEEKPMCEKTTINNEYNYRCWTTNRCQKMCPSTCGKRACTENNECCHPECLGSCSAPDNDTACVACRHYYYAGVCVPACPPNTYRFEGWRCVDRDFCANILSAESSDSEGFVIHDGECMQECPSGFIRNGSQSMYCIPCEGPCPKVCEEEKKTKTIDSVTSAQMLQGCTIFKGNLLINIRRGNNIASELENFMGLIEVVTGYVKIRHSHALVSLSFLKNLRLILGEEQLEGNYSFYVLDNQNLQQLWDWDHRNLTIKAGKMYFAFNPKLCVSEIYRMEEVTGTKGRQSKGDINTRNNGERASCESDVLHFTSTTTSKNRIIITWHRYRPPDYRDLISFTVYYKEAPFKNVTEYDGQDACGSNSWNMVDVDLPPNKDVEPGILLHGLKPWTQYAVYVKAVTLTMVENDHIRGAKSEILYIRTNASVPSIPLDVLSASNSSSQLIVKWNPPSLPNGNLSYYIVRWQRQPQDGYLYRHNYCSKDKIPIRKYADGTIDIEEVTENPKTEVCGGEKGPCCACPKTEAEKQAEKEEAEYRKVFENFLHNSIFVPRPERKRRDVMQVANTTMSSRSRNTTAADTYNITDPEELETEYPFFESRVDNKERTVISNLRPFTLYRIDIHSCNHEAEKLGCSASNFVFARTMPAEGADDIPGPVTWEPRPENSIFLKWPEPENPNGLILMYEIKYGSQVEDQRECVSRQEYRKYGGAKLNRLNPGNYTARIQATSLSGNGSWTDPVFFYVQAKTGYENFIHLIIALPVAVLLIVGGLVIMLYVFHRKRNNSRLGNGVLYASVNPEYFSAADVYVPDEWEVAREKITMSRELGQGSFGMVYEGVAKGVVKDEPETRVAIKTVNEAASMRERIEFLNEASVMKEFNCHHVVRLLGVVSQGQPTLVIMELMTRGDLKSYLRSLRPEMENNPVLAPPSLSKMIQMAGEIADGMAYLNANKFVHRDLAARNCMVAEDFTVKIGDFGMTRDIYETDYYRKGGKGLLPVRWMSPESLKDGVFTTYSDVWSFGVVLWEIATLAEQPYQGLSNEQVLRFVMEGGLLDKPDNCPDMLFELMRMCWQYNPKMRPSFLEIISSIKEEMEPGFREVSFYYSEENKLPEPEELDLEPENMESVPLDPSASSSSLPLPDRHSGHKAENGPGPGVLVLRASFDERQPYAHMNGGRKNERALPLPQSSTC

On to `O=C1C[C@@H](c2ccc(O[C@@H]3O[C@H](CO)[C@@H](O)[C@H](O)[C@H]3O)cc2)Oc2cc(O)ccc21` [Liquiritin], for which the inhibition at 3 µM with SKBR3 cells [1] (SKBR3, 3 µM, 72 h, read-out: inhibition of cell migration) is 22.1%. The inhibition at 6 µM with SKBR3 cells [1] (SKBR3, 6 µM, 72 h, read-out: inhibition of cell migration) is 32.8%. Also, in the test on SKBR3 cells [1] (SKBR3, 10 µM, 72 h, read-out: inhibition of cell migration), the inhibition at 10 µM was 38.2%. In the test on SKBR3 cells [1] (SKBR3, 20 µM, 72 h, read-out: inhibition of cell migration), the inhibition at 20 µM was found to be 54.1%. The IC50 in the test on SKBR3 cells [1] (SKBR3, wound healing, read-out: IC50, cell migration) worked out at 16.9 µM; at HER2 kinase, 0.0185 µM. Besides, the inhibition at 0.1 µM was more than 80% on ERBB4 (HER4); 4% on IGF1R; more than 80% on ERBB2 (HER2); more than 80% against EGFR (ErbB1); 2% against FLT1 (VEGFR1); 8% at ROS1. The values for the inhibition at 0.1 µM at FGFR1, on RET and at KDR (VEGFR2) were 7%, 2% and 4%, respectively. Besides, the “Mean inhibition (%)” value on ERBB4 (HER4) (0.1 µM) was 88%; at ERBB2 (HER2) (0.1 µM) it was 92%; on EGFR (ErbB1) (0.1 µM), 99%. Also, in the test on SKBR3 cells [2], the reduction in migration entry is reported as “approximately 23%”.
